Molecular target: T1, progesterone receptor (Homo sapiens, UniProt P06401)
T1 sequence (P06401 1-933): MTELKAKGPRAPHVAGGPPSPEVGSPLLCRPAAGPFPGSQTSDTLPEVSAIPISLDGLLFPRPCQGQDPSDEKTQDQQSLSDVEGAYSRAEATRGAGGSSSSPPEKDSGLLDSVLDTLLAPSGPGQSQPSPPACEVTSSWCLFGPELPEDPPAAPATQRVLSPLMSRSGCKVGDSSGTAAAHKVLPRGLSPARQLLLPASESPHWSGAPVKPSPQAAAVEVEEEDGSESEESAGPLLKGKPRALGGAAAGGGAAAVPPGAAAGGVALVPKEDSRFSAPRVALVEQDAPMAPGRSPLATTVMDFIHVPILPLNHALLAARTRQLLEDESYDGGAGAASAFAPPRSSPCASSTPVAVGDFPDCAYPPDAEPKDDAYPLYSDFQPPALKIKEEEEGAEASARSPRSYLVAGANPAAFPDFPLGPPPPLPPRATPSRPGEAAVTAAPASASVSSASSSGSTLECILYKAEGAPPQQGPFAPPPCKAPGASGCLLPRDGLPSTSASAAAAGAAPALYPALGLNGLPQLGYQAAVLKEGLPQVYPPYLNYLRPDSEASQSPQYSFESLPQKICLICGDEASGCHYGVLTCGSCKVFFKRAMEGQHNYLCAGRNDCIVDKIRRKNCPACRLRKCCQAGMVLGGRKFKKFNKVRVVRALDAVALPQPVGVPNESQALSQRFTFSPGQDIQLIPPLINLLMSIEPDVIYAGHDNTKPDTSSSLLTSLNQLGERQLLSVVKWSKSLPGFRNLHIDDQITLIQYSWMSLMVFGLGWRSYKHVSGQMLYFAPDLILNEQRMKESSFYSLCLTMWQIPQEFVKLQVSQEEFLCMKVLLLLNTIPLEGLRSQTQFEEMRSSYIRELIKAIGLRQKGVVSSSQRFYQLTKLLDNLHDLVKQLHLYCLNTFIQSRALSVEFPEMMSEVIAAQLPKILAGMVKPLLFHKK
Experiment: T47D alkaline phosphatase assay for progesterone receptor modulator (antagonist) activity
Assay type: cell-based
Design: endogenous in cells; host or cells: T47D cells
Details: T47D cells, antagonist mode in the presence of 1 nM progesterone, 24 hours
Procedure: An assay was performed to identify compounds having progesterone receptor modulator activity. This assay identifies progestins or antiprogestins by determining a compound's effect on alkaline phosphatase activity in T47D cells.
Culture medium: DMEM:F12 (1:1) (GIBCO, BRL) supplemented with 5% (v/v) charcoal stripped fetal bovine serum (not heat-inactivated), 100 U/mL penicillin, 100 μg/mL streptomycin, and 2 mM the GlutaMax® reagent (GIBCO, BRL).
Alkaline phosphatase assay buffer: • I. 0.1M Tris-HCl, pH 9.8, containing 0.2% the Triton™ X-100 reagent • II. 0.1M Tris-HCl, pH 9.8, containing 4 mM p-nitrophenyl phosphate (Sigma).
Frozen T47D cells are thawed in a 37° C. water bath and diluted to 280,000 cells/mL in culture medium. To each well in a 96-well plate (Falcon, Becton Dickinson Labware), 180 μL of diluted cell suspension is added.
Twenty μL of reference or test compounds diluted in the culture medium is then added to each well. When testing for progestin antagonist activity, reference antiprogestins or test compounds are added in the presence of 1 nM progesterone. The cells are incubated at 37° C. in a 5% CO2/humidified atmosphere for 24 hours.
For high throughput screening, one concentration of each compound will be tested at 0.3 μg/mL. Based on an average molecular weight of 300 g/mol for the compounds in the library, the concentration is approximately 1 μM. Subsequently, active compounds will be tested in dose response assays to determine EC50 and IC50.
At the end of treatment, the medium is removed from the plate. Fifty μL of assay buffer I is added to each well. The plates are shaken in a titer plate shaker for 15 minutes. Then 150 μL of assay buffer II is added to each well. Optical density measurements are taken at 5 minute intervals for 30 minutes at a test wavelength of 405 nm.
Analysis of dose-response data. For reference and test compounds, a dose response curve is generated for dose (x-axis) vs. the rate of enzyme reaction (slope) (y-axis). Square root-transformed data are used for analysis of variance and nonlinear dose response curve fitting for both agonist and antagonist modes. Huber weighting is used to down-weight the effects of outliers. EC50 or IC50 values are calculated from the retransformed values. The JMP® software (SAS Institute, Inc.) is used for both one-way analysis of variance and non-linear dose response analysis in both single dose and dose response studies.
Progesterone and trimegestone are reference progestins and RU486 is the reference antiprogestin. All reference compounds are run in full dose response curves and the EC50 and IC50 values are calculated.
In the table provided above, the IC50 values show the relative progesterone receptor antagonist activity in this assay. Lower numbers are indicative of higher potency, i.e., greater PR antagonist activity. Further, the assay has a standard deviation of about ±6.

Compound | IC50
Cn1c(C#N)ccc1-c1ccc(N)cc1 [Example 1, 5-(4-aminophenyl)-1-methyl-1H-pyrrole-2-carbonitrile] | 109 nM
Cn1c(C#N)ccc1-c1ccc(N)c(F)c1 [Example 2, 5-(4-amino-3-fluorophenyl)-1-methyl-1H-pyrrole-2-carbonitrile] | 65.4 nM
Cn1c(C#N)ccc1-c1ccc(NC(=O)c2ccco2)cc1 [Example 3, N-[4-(5-cyano-1-methyl-1H-pyrrol-2-yl)phenyl]-2-furamide] | 126 nM
CC(C)CC(=O)Nc1ccc(-c2ccc(C#N)n2C)cc1 [Example 4, N-[4-(5-cyano-1-methyl-1H-pyrrol-2-yl)phenyl]-3-methylbutanamide] | 304 nM
CC(C)C(=O)Nc1ccc(-c2ccc(C#N)n2C)cc1 [Example 5, N-[4-(5-cyano-1-methyl-1H-pyrrol-2-yl)phenyl]-2-methylpropanamide] | 168 nM
CCC(=O)Nc1ccc(-c2ccc(C#N)n2C)cc1 [Example 6, N-[4-(5-cyano-1-methyl-1H-pyrrol-2-yl)phenyl]propanamide] | 76.7 nM
CCCC(=O)Nc1ccc(-c2ccc(C#N)n2C)cc1 [Example 7, N-[4-(5-cyano-1-methyl-1H-pyrrol-2-yl)phenyl]butanamide] | 78.8 nM
CC(=O)Nc1ccc(-c2ccc(C#N)n2C)cc1 [Example 8, N-[4-(5-cyano-1-methyl-1H-pyrrol-2-yl)phenyl]acetamide] | ~300 nM
Cn1c(C#N)ccc1-c1ccc(NC(=O)c2ccccc2)cc1 [Example 9, N-[4-(5-cyano-1-methyl-1H-pyrrol-2-yl)phenyl]benzamide] | 90.5 nM
Cn1c(C#N)ccc1-c1ccc(NC(=O)C2CCC2)cc1 [Example 10, N-[4-(5-cyano-1-methyl-1H-pyrrol-2-yl)phenyl]cyclobutane-carboxamide] | 83.9 nM
Cn1c(C#N)ccc1-c1ccc(NC(=O)C2CCCCC2)cc1 [Example 11, N-[4-(5-cyano-1-methyl-1H-pyrrol-2-yl)phenyl]cyclohexane-carboxamide] | 325 nM
C=C(C)C(=O)Nc1ccc(-c2ccc(C#N)n2C)cc1 [Example 12, N-[4-(5-cyano-1-methyl-1H-pyrrol-2-yl)phenyl]-2-methylacrylamide] | 97.2 nM
CCOC(=O)Nc1ccc(-c2ccc(C#N)n2C)cc1 [Example 13, Ethyl[4-(5-cyano-1-methyl-1H-pyrrol-2-yl)phenyl]carbamate] | 266 nM
CC(C)COC(=O)Nc1ccc(-c2ccc(C#N)n2C)cc1 [Example 14, Isobutyl[4-(5-cyano-1-methyl-1H-pyrrol-2-yl)phenyl]carbamate] | 378 nM
Cn1c(C#N)ccc1-c1ccc(NC(=O)Nc2ccc(-c3ccc(C#N)n3C)cc2)cc1 [Example 15, N,N′-bis[4-(5-cyano-1-methyl-1H-pyrrol-2-yl)phenyl]urea] | 642 nM
CCCS(=O)(=O)Nc1ccc(-c2ccc(C#N)n2C)cc1 [Example 16, N-[4-(5-cyano-1-methyl-1H-pyrrol-2-yl)phenyl]propane-1-sulfonamide] | 9.8 nM
Cn1c(C#N)ccc1-c1ccc(N(S(C)(=O)=O)S(C)(=O)=O)cc1 [Example 17, N-[4-(5-cyano-1-methyl-1H-pyrrol-2-yl)phenyl]-N-(methylsulfonyl)methane sulfonamide] | ~300 nM
CCCCS(=O)(=O)Nc1ccc(-c2ccc(C#N)n2C)cc1 [Example 18, N-[4-(5-cyano-1-methyl-1H-pyrrol-2-yl)phenyl]butane-1-sulfonamide] | ~300 nM

Compound | IC50
Cn1c(C#N)ccc1-c1ccc(NS(=O)(=O)CC(F)(F)F)cc1 [Example 19, N-[4-(5-cyano-1-methyl-1H-pyrrol-2-yl)phenyl]-2,2,2-trifluoroethanesulfonamide] | 58.4 nM
CC(C)c1ccc(S(=O)(=O)Nc2ccc(-c3ccc(C#N)n3C)cc2)cc1 [Example 20, N-[4-(5-cyano-1-methyl-1H-pyrrol-2-yl)phenyl]-4-isopropylbenzenesulfonamide] | ~3000 nM
Cn1c(C#N)ccc1-c1ccc(NS(=O)(=O)c2ccccc2)cc1 [Example 21, N-[4-(5-cyano-1-methyl-1H-pyrrol-2-yl)phenyl]benzenesulfonamide] | ~30 nM
Cc1ccc(S(=O)(=O)Nc2ccc(-c3ccc(C#N)n3C)cc2)cc1 [Example 22, N-[4-(5-cyano-1-methyl-1H-pyrrol-2-yl)phenyl]-4-methylbenzenesulfonamide] | ~3000 nM
CC(C)S(=O)(=O)Nc1ccc(-c2ccc(C#N)n2C)cc1 [Example 23, N-[4-(5-cyano-1-methyl-1H-pyrrol-2-yl)phenyl]propane-2-sulfonamide] | 1.5 nM
CCS(=O)(=O)Nc1ccc(-c2ccc(C#N)n2C)cc1 [Example 24, N-[4-(5-cyano-1-methyl-1H-pyrrol-2-yl)phenyl]ethanesulfonamide] | 10 nM
Cn1c(C#N)ccc1-c1ccc(NS(C)(=O)=O)cc1 [Example 25, N-[4-(5-cyano-1-methyl-1H-pyrrol-2-yl)phenyl]methanesulfonamide] | 8.2 nM
Cn1c(C#N)ccc1-c1ccc(NS(C)(=O)=O)c(F)c1 [Example 26, N-[4-(5-cyano-1-methyl-1H-pyrrol-2-yl)-2-fluorophenyl]methane-sulfonamide] | 28.9 nM
CCS(=O)(=O)Nc1ccc(-c2ccc(C#N)n2C)cc1F [Example 27, N-[4-(5-cyano-1-methyl-1H-pyrrol-2-yl)-2-fluorophenyl]ethane-sulfonamide] | 29.9 nM
Cn1c(C#N)ccc1-c1ccc(NC#N)cc1 [Example 28, [4-(5-cyano-1-methyl-1H-pyrrol-2-yl)-phenyl]cyanamide] | 54.1 nM
CCc1cc(-c2ccc(C#N)n2C)ccc1NC#N [Example 30, [4-(5-cyano-1-methyl-1H-pyrrol-2-yl)-2-ethylphenyl]cyanamide] | ~300 nM
CCCc1cc(-c2ccc(C#N)n2C)ccc1NC#N [Example 31, [4-(5-cyano-1-methyl-1H-pyrrol-2-yl)-2-propylphenyl] cyanamide] | < 300 nM
CC(C)c1cc(-c2ccc(C#N)n2C)ccc1NC#N [Example 32, [4-(5-cyano-1-methyl-1H-pyrrol-2-yl)-2-isopropylphenyl]cyanamide] | < 300 nM
Cn1c(C#N)ccc1-c1ccc(NC#N)c(Cl)c1 [Example 33, [2-chloro-4-(5-cyano-1-methyl-1H-pyrrol-2-yl)phenyl]cyanamide] | 897 nM
Cn1c(C#N)ccc1-c1ccc(NC#N)c(F)c1 [Example 34, [4-(5-cyano-1-methyl-1H-pyrrol-2-yl)-2-fluorophenyl]cyanamide] | 670 nM
COc1cc(-c2ccc(C#N)n2C)ccc1NC#N [Example 35] | < 300 nM
COc1cc(NC#N)ccc1-c1ccc(C#N)n1C [Example 36, [4-(5-cyano-1-methyl-1H-pyrrol-2-yl)-3-methoxyphenyl]cyanamide] | 83.9 nM
